Values after ≈ are worked out from the molar mass of the structure shown. Where two headings read alike, the source gives them in different places.
Legend:
[1] = Single-dose pharmacokinetics in female FVB mice; format: in vivo, mouse; conditions: for Kp at 4 h: read-out: Brain to Plasma concentration ratio at 4 h
Experimental: Pharmacokinetics of SRI-011381 after single intravenous, intraperitoneal, or oral administration in female FVB mice: The objective of this study was to determine the single-dose pharmacokinetics of SRI-011381 in plasma and brain. Female FVB/NJ mice were administered the test article by intravenous (iv, 10 mg/kg), intraperitoneal (ip, 30 mg/kg), and oral gavage (po, 50 mg/kg) dose routes. The compound was formulated in 10% DMSO:15% Solutol:75% sterile water. Plasma and brain were collected at various time points up to 24 h and analyzed by LC/MS for determination of SRI-011381 levels. FIGS. 7A and 7B summarize SRI-011381 levels in plasma and brain, and Tables 4 and 5 list the results of the pharmacokinetic analysis.

[2] = Solubility; format: physicochemical; conditions: aqueous buffer; in PBS
[3] = Repeat dose range finding toxicity study in APP751LonSwe transgenic mice; format: in vivo; conditions: both sexes, APP751LonSwe transgenic, C57Bl/6 background, mouse, in vivo; oral, 3 times per week for 2 weeks; read-out: maximum tolerated dose (MTD)
Experimental: (§1) Determination of the maximum tolerated dose of SRI-011381 in APP transgenic mice on a C57Bl/6 genetic background: A repeat dose range finding toxicity study was also performed in APP751^LonSwe transgenic mice to select doses for evaluation in the efficacy study. Compound SRI-011381 was dissolved in a vehicle containing 15% solutol and 85% water. The formulated compound was administered orally to APP751^LonSwe transgenic mice at 0 (vehicle only), 10, 30, 60, or 100 mg/kg of body weight 3 times a week for 2 weeks (this is the regimen intended to be used for the preclinical treatment study in these mice). Five mice (3 male and 2 female) were used for each dosage group. The starting ages of the mice ranged from 4.4 to 6.1 months. Serum and whole blood samples were collected at the end of the study and subjected to clinical chemistry and hematology analysis.

[4] = tested on: APP751LonSwe transgenic mice; test: as above; format: in vivo; conditions: oral 10, 30, 60, or 100 mg/kg 3 times a week for 2 weeks
Experimental: as §1

[5] = tested on: Sprague Dawley rats; test: 7-Day oral gavage dose range finding and toxicokinetic study in rats; format: in vivo
Experimental: 7-Day oral gavage dose range finding and toxicokinetic study of SRI-011381 in male and female Sprague Dawley rats: The objective of this study was to determine maximum tolerated dose (MTD), characterize the potential toxicity, and estimate the dose dependence of exposure to SRI-011381 in adult male and female Sprague Dawley rats following daily oral gavage (po) dose administration for 7 consecutive days. The doses studied were 2, 10, and 50 mg/kg, formulated in 15% Solutol/85% sterile water and administered in the volume of 10 ml/kg.
Species and Strain: Sprague Dawley rat; Route of Administration: Oral (po); Frequency: Daily administration for 7 consecutive days; Dosing Volume: 10 ml/kg; Dose volumes will be calculated based on the animal's most recent body weight; Duration of In-life Phase: 8 days; Endpoints: clinical observations, mortality, body weights, clinical chemistry, hematology, gross pathology, organ weights, histopathology, toxicokinetics.

[6] = tested on: GFAP-luc mice; test: Kainic acid lesion in GFAP-luc mice, bioluminescence; format: in vivo, mouse; conditions: kainic acid 20 mg/kg
Experimental: FIGS. 5A-5B show GFAP-luc mice (2-month-old) lesioned with kainic acid (20 mg/kg). Bioluminescence was recorded longitudinally at indicated time points in each mouse. Representative images showing increased bioluminescence signals over the brain after kainic acid injury (left panel) and the reduction by SRI-011381 (381) treatment (right panel) (FIG. 5A). Bioluminescence is expressed as fold induction over baseline, which was measured 1 day before kainic acid administration for each mouse (FIG. 5B). Bars are mean±SEM (n=4-7 mice). The mice were sacrificed 5 days later. Brains were removed, fixed with paraformaldehyde, sectioned and stained with cresyl violet, or immunohistochemical methods. […] Bars are mean±SEM (n=4-7 mice/group) and the asterisk signifies P<0.05 by unpaired t test.

[7] = female, FVB/NJ, mouse, brain, ip, 30 mg/kg
[8] = female, FVB/NJ, mouse, brain, iv, 10 mg/kg
[9] = female, FVB/NJ, mouse, brain, po, 50 mg/kg
[10] = female, FVB/NJ, mouse, plasma, ip, 30 mg/kg
[11] = female, FVB/NJ, mouse, plasma, iv, 10 mg/kg
[12] = female, FVB/NJ, mouse, plasma, po, 50 mg/kg
[13] = po 2, 10, 50 mg/kg daily for 7 days

## O=C(NC1CCCCC1)N(Cc1ccccc1)CC1CCNCC1 [SRI-011381, 1-Benzyl-3-cyclohexyl-1-(piperidin-4-ylmethyl)urea]
[1]; female, FVB/NJ, mouse, brain, intraperitoneal, time points after about 0.5 h (iv) and about 1.5 h (po and ip), read-out: brain-to-plasma concentration ratio
  Kp: > 0.5
[1]; [7]
  Cmax: 348 ± 33 ng/mL
  Tmax: 15 min
  Kp at 4 h: 1.65
[1]; [8]
  Cmax: 231 ± 106 ng/mL
  Tmax: 15 min
  Kp at 4 h: 12.5
[1]; [9]
  Cmax: 157 ± 16 ng/mL
  Tmax: 60 min
[1]; female, FVB/NJ, mouse, brain, po, 50 mg/kg, p.o.
  Kp at 4 h: 0.89
[1]; female, FVB/NJ, mouse, brain/plasma, ip, 30 mg/kg, values at the brain T, read-out: Brain-to-plasma ratio
  Kp: 0.07
[1]; female, FVB/NJ, mouse, brain/plasma, iv, 10 mg/kg, values at the brain T, read-out: Brain-to-plasma ratio
  Kp: 0.28
[1]; female, FVB/NJ, mouse, brain/plasma, po, 50 mg/kg, values at the brain T, read-out: Brain-to-plasma ratio
  Kp: 0.19
[1]; female, FVB/NJ, mouse, plasma, intraperitoneal, extravascular estimates (ip and po) based on F, read-out: Cl (converted)
  clearance: ~150 mL/min/kg
[1]; female, FVB/NJ, mouse, plasma, intraperitoneal, extravascular estimates (ip and po) based on F, read-out: apparent volume of distribution V
  Vd: 8 to 13 L/kg
[1]; female, FVB/NJ, mouse, plasma, intravenous, intraperitoneal, oral, read-out: elimination half-life
  half-life: < 60 min
[1]; [10]
  AUC(0-inf): 4160 ng·h/mL
  AUC(0-t): 4110 ± 214 ng·h/mL
  Cmax: 6810 ± 720 ng/mL
  Tmax: 4.98 min
[1]; female, FVB/NJ, mouse, plasma, ip, 30 mg/kg, read-out: t1/2 (converted)
  half-life: 35.4 min
[1]; [11]
  AUC(0-inf): 1080 ng·h/mL
  AUC(0-t): 1070 ± 129 ng·h/mL
  Cmax: 1170 ± 415 ng/mL
  Tmax: 4.98 min
[1]; female, FVB/NJ, mouse, plasma, iv, 10 mg/kg, read-out: CI (clearance) (converted)
  clearance: 154 mL/min/kg
[1]; female, FVB/NJ, mouse, plasma, iv, 10 mg/kg, read-out: t1/2 (converted)
  half-life: 34.2 min
[1]; [12]
  AUC(0-inf): 2600 ng·h/mL
  AUC(0-t): 2600 ± 374 ng·h/mL
  Cmax: 2950 ± 1240 ng/mL
  Tmax: 10 min
[1]; female, FVB/NJ, mouse, plasma, po, 50 mg/kg, plasma, po, 50 mg/kg, read-out: F (oral bioavailability)
  bioavailability: ~50%
[1]; female, FVB/NJ, mouse, plasma, po, 50 mg/kg, read-out: t1/2 (converted)
  half-life: 58.2 min
[1]; female, FVB/NJ, mouse, brain, ip, 30 mg/kg, AUC from 0.25 to 4 h
  AUC(0-t): 740 ± 32 ng·h/mL
[1]; female, FVB/NJ, mouse, brain, iv, 10 mg/kg, AUC from 0.25 to 4 h
  AUC(0-t): 738 ± 89 ng·h/mL
[1]; female, FVB/NJ, mouse, brain, po, 50 mg/kg, AUC from 0.5 to 4 h
  AUC(0-t): 416 ± 33 ng·h/mL
[1]; plasma, ip, 30 mg/kg
  CI (clearance): 154.3 mL/min/kg
  F: 128%
  V: 7.875 L/kg
[1]; plasma, iv, 10 mg/kg
  F: 100%
  V: 7.669 L/kg
[1]; plasma, po, 50 mg/kg
  V: 13.012 L/kg
[2]
  solubility: 5200 µg/mL (≈ 15.8 mM)
[3]
  MTD at 2 weeks: > 100 mg/kg
[4]
  body weight: no significant differences in body weight
  clinical chemistry or hematology parameters: no statistically significant changes
[5]; high dose group (50 mg/kg)
  LDH: significantly lower in male rats of the high dose group
[5]; male and female rats
  gender related differences in exposure: nor were gender related differences observed
[5]; po 2, 10, 50 mg/kg
  exposure after 7 doses compared to the first dose: no apparent change in exposure
[5]; [13]
  alkaline phosphatase (ALP) levels: significantly elevated in all treatment groups in the female rats, though not in males
  body weight: no statistically significant differences in body weight
  clinical observations: appeared normal
  hematology parameters: no significant changes in any hematology parameters
[5]; po 2, 10, 50 mg/kg, Day 1 and 7
  exposure based on plasma collected 1 h after dose: increased in a dose dependent fashion
[6]
  bioluminescence signals over the brain after kainic acid injury: reduction
